Source: patent US8614227B2, “Salt and solvates of a tetrahydroisoquinoline derivative” (Spinifex Pharmaceuticals Pty Ltd, priority 2010, dated 2013)
Read-outs that look alike come from different tables or passages of the source.

Tests used:
[1] = Compound 2 solubility in solvents and buffers (saturated, 24 h shaking, HPLC); format: physicochemical; details: for solubility at 24 h: thermodynamic from solid
Procedure: Solubility of Compound 2 in a solvent, selected from water, methanol, acetonitrile (ACN) and iso-propanol and in 50 mM phosphate buffer at pH 1, 2, 7 and 8, 50 mM citrate buffer at pH 3, 4, 5 and 6 and in 50 mM borate buffer at pH 9 was assessed. Compound 2 was added to 10 mL of the solvent or buffer until the solution was visibly saturated and remained cloudy upon vortex mixing. Each sample was placed on a reciprocal shaker at room temperature for 24 hours then filtered through a 0.45 μm nylon filter to remove excess suspended compound. The samples were then diluted where required in accordance with Table 24, and analyzed by HPLC. The results were compared with a standard curve of known concentrations in ACN.

[2] = as above; format: physicochemical; details: 50 mM phosphate buffer, aqueous buffer, thermodynamic from solid; pH 3 buffer (phosphate, 50 mM)
[3] = Compound 2 solution stability, one week (HPLC % purity); format: physicochemical; details: for Δ% Purity at 5° C. / Δ% Purity at 25° C./60% RH: 1 week; for Initial % Purity: t=0
Procedure: The above analysis was taken as t=0 and the samples were then divided in two and one of each sample was stored at 5° C. for one week and the other of each sample was stored at 25° C./60% relative humidity (RH) for one week.
After one week, the samples were allowed to equilibrate to room temperature and if required (H2O and pH 7-9 samples stored at 5° C.) refiltered to remove precipitate.
The samples were reanalyzed by HPLC.

[4] = dog, in vivo, po, 10 mg/kg
Procedure: The study was designed to compare the PK profiles of the following four forms of Compound 1 administered as single oral capsules in fasted state. […] There was a washout period of 4 days between dosing. The blood samples were collected from each animal at predetermined times on the study Days 1, 4, 8 and 11. The plasma was analyzed for Compound 1 by a validated HPLC-MS/MS assay.
Descriptive PK parameters were determined by standard model independent methods (Gibaldi and Perrier, 1982) based on the individual plasma concentration-time data. Plasma concentrations were rounded to 3 significant figures. Plasma samples with concentrations below the quantifiable assay limit (BQL<2.00 ng/mL) were assigned values of zero for mean calculations. For PK calculations, BQL was set to zero from the pre-dose time up to the time of the first quantifiable concentration and thereafter was set as missing. Nominal time points were used for all calculations. • Cmax is the observed maximum plasma concentration after dosing. • Tmax is the time to reach Cmax. • T1/2 is apparent half-life calculated by ln(2)/λ where λ is the rate constant fix the log-linear portion of the terminal phase. A minimum of three values in the post-distribution phase of the plasma concentration-time curve is required for calculation of X. • AUC(0-T) is the area under the plasma concentration-time curve from time zero to the time of the last measurable plasma concentration determined using the linear trapezoidal rule. • AUC(0-inf) is the area under the plasma concentration-time curve from time zero to infinity. It is calculated by summing AUC(0-T) and the extrapolated area from the T to infinity.
PK analyses were performed by noncompartmental analysis using model 200 in WinNonlin Professional 6.1 (Pharsight Corp., Mountain View, Calif.).

COc1ccc2c(c1OCc1ccccc1)C[C@@H](C(=O)[O-])N(C(=O)C(c1ccccc1)c1ccccc1)C2.[Na+] [Compound 2, sodium salt of (S)-2-(diphenylacetyl)-1,2,3,4-tetrahydro-6-methoxy-5-(phenylmethoxy)-3-isoquinoline carboxylic acid]
solubility at 24 h ([1]; 50 mM borate buffer, aqueous buffer, pH 9 buffer (borate, 50 mM)): 5300 µg/mL
solubility at 24 h ([1]; 50 mM citrate buffer, aqueous buffer, pH 4 buffer (citrate, 50 mM)): < 1 µg/mL
solubility at 24 h ([1]; 50 mM citrate buffer, aqueous buffer, pH 5 buffer (citrate, 50 mM)): 33 µg/mL
solubility at 24 h ([1]; 50 mM citrate buffer, aqueous buffer, pH 6 buffer (citrate, 50 mM)): 900 µg/mL
solubility at 24 h ([1]; 50 mM phosphate buffer, aqueous buffer, pH 1 buffer (phosphate, 50 mM), room temperature 24 h): < 1 µg/mL
solubility at 24 h ([1]; 50 mM phosphate buffer, aqueous buffer, pH 2 buffer (phosphate, 50 mM)): < 1 µg/mL
solubility at 24 h ([1]; 50 mM phosphate buffer, aqueous buffer, pH 7 buffer (phosphate, 50 mM)): 1700 µg/mL
solubility at 24 h ([1]; 50 mM phosphate buffer, aqueous buffer, pH 8 buffer (phosphate, 50 mM)): 1600 µg/mL
Solubility ([1]; Methanol): >50000 µg/mL
solubility at 24 h ([1]; acetonitrile, organic solvent or mixture): 12000 µg/mL
solubility at 24 h ([1]; iso-propanol, organic solvent or mixture, IPA): 700 µg/mL
solubility at 24 h ([1]; methanol, organic solvent or mixture): > 50000 µg/mL
solubility at 24 h ([1]; water): 14000 µg/mL
solubility at 24 h [2]: < 1 µg/mL
t = 1 week % Purity at 5° C. ([3]; pH 6 buffer solution): 87.02%
t = 1 week % Purity at 25° C./60% RH ([3]; pH 6 buffer solution): 88.98%
Δ% Purity at 5° C. ([3]; pH 6 buffer solution): −1.35%
Δ% Purity at 25° C./60% RH ([3]; pH 6 buffer solution): +0.61%
Initial % Purity ([3]; pH 6 buffer solution): 88.37%
t = 1 week % Purity at 5° C. ([3]; pH 7 buffer solution): 74.27%
t = 1 week % Purity at 25° C./60% RH ([3]; pH 7 buffer solution): 76.52%
Δ% Purity at 5° C. ([3]; pH 7 buffer solution): −1.85%
Δ% Purity at 25° C./60% RH ([3]; pH 7 buffer solution): +0.40%
Initial % Purity ([3]; pH 7 buffer solution): 76.12%
t = 1 week % Purity at 5° C. ([3]; pH 8 buffer solution): 81.45%
t = 1 week % Purity at 25° C./60% RH ([3]; pH 8 buffer solution): 86.70%
Δ% Purity at 5° C. ([3]; pH 8 buffer solution): −4.09%
Δ% Purity at 25° C./60% RH ([3]; pH 8 buffer solution): +1.16%
Initial % Purity ([3]; pH 8 buffer solution): 85.54%
t = 1 week % Purity at 5° C. ([3]; pH 9 buffer solution): 89.17%
t = 1 week % Purity at 25° C./60% RH ([3]; pH 9 buffer solution): 91.60%
Δ% Purity at 5° C. ([3]; pH 9 buffer solution): −2.07%
Δ% Purity at 25° C./60% RH ([3]; pH 9 buffer solution): +0.36%
Initial % Purity ([3]; pH 9 buffer solution): 91.24%
t = 1 week % Purity at 5° C. ([3]; solution in ACN): 97.50%
t = 1 week % Purity at 25° C./60% RH ([3]; solution in ACN): 97.46%
Δ% Purity at 5° C. ([3]; solution in ACN): 0.00%
Δ% Purity at 25° C./60% RH ([3]; solution in ACN): −0.04%
Initial % Purity ([3]; solution in ACN): 97.50%
t = 1 week % Purity at 5° C. ([3]; solution in H2O): 94.66%
t = 1 week % Purity at 25° C./60% RH ([3]; solution in H2O): 95.67%
Δ% Purity at 5° C. ([3]; solution in H2O): −0.92%
Δ% Purity at 25° C./60% RH ([3]; solution in H2O): +0.09%
Initial % Purity ([3]; solution in H2O): 95.58%
t = 1 week % Purity at 5° C. ([3]; solution in IPA): 89.59%
t = 1 week % Purity at 25° C./60% RH ([3]; solution in IPA): 90.51%
Δ% Purity at 5° C. ([3]; solution in IPA): +0.31%
Δ% Purity at 25° C./60% RH ([3]; solution in IPA): +1.23%
Initial % Purity ([3]; solution in IPA): 89.28%
t = 1 week % Purity at 5° C. ([3]; solution in MeOH): 97.52%
t = 1 week % Purity at 25° C./60% RH ([3]; solution in MeOH): 97.39%
Δ% Purity at 5° C. ([3]; solution in MeOH): +0.13%
Δ% Purity at 25° C./60% RH ([3]; solution in MeOH): 0.00%
Initial % Purity ([3]; solution in MeOH): 97.39%
Plasma concentration of Compound 1, 0.25 h [4]: BQL
Plasma concentration of Compound 1, 0.5 h [4]: BQL
Plasma concentration of Compound 1, 24 h [4]: BQL
Plasma concentration of Compound 1, Predose [4]: BQL
Plasma concentration of Compound 1, Predose ([4]; male, beagle): 0.00 ng/mL
